Measured values from ChEMBL document CHEMBL5212743, “Selectivity Literature for EUbOPEN Chemogenomics Library wave 3” (2023).
Blank lines part the entries; values can stand above or below the compound they belong to.

Legend:
[1] = molecular target: T1, Adenosine receptor A3 (Homo sapiens) (UniProt P0DMS8); assay: Selectivity interaction (CEREP panel (Eurofins, binding assay)) EUB0000544a ADORA3; details: at 10 µM
T1 sequence (whole entry): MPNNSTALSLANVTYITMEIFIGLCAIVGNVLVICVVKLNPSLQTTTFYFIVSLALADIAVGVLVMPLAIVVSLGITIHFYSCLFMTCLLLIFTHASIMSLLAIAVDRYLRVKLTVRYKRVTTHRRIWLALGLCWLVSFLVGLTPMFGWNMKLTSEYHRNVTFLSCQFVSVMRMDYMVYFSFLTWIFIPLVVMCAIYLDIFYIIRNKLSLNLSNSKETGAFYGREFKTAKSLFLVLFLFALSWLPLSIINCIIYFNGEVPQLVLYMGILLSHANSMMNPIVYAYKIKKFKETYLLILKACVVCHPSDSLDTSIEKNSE

[2] = molecular target: T1, Adenosine receptor A3 (Homo sapiens); assay: Selectivity interaction (CEREP panel (Eurofins, enzymes and uptake assays)) EUB0000544a ADORA3; details: at 10 µM
[3] = molecular target: T2, Alpha-2B adrenergic receptor (Homo sapiens) (UniProt P18089); assay: Selectivity interaction (CEREP panel (Eurofins, binding assay)) EUB0000544a ADRA2B; details: at 10 µM
T2 sequence (whole entry): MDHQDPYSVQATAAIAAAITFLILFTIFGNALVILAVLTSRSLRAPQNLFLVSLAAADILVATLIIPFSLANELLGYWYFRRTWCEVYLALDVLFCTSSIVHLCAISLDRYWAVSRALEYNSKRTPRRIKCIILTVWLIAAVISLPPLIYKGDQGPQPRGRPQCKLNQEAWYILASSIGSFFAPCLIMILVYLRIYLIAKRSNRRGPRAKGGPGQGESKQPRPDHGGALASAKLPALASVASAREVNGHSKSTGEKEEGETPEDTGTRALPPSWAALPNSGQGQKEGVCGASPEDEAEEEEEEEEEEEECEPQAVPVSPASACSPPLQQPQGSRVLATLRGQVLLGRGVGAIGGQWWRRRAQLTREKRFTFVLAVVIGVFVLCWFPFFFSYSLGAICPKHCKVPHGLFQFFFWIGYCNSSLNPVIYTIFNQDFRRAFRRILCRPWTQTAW

[4] = molecular target: T2, Alpha-2B adrenergic receptor (Homo sapiens); assay: Selectivity interaction (CEREP panel (Eurofins, enzymes and uptake assays)) EUB0000544a ADRA2B; details: at 10 µM
[5] = molecular target: T3, Homeodomain-interacting protein kinase 4 (Homo sapiens) (UniProt Q8NE63); assay: Selectivity interaction (KinomeScan (DiscoverX)) EUB0000544a HIPK4; details: at 1 µM
T3 sequence (whole entry): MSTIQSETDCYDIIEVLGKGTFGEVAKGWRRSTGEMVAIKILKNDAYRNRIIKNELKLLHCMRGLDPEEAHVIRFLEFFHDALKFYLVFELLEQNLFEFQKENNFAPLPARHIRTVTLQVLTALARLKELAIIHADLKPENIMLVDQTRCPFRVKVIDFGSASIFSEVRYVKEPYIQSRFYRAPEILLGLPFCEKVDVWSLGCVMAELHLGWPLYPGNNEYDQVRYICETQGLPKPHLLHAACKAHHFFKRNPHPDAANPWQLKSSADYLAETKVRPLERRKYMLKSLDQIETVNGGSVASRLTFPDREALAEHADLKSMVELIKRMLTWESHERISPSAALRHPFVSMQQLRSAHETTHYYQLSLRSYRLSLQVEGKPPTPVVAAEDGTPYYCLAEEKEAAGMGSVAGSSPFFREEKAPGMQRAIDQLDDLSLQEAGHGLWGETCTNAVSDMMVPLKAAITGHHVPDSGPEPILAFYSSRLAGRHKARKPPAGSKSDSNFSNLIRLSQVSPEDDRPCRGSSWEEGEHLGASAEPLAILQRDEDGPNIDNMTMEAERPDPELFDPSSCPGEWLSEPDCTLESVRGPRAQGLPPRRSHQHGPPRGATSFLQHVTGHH

[6] = molecular target: T4, Gamma-aminobutyric acid receptor subunit alpha-1 (Homo sapiens, UniProt P14867); assay: Selectivity interaction (GPCR panel (PDSP screen)) EUB0000544a GABRA1
T4 sequence (P14867 whole entry): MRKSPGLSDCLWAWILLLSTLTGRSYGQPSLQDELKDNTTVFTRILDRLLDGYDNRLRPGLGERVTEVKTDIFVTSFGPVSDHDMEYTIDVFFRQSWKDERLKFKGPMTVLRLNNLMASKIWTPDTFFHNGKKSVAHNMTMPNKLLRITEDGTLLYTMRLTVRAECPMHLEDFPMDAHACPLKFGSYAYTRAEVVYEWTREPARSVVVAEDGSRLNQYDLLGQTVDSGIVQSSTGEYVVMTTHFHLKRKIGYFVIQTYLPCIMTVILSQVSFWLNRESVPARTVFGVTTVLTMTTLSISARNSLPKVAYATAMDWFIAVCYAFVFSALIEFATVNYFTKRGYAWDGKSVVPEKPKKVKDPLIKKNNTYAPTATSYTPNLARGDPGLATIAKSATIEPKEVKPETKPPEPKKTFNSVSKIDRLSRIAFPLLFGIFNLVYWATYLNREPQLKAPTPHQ

[7] = molecular target: Translocator protein (Homo sapiens) (UniProt P30536); assay: Selectivity interaction (CEREP panel (Eurofins, binding assay)) EUB0000544a TSPO; details: at 10 µM
[8] = molecular target: T5, Alpha-1D adrenergic receptor (Homo sapiens, UniProt P25100); assay: Selectivity interaction (GPCR panel (PDSP screen)) EUB0000746a ADRA1D
T5 sequence (P25100 whole entry): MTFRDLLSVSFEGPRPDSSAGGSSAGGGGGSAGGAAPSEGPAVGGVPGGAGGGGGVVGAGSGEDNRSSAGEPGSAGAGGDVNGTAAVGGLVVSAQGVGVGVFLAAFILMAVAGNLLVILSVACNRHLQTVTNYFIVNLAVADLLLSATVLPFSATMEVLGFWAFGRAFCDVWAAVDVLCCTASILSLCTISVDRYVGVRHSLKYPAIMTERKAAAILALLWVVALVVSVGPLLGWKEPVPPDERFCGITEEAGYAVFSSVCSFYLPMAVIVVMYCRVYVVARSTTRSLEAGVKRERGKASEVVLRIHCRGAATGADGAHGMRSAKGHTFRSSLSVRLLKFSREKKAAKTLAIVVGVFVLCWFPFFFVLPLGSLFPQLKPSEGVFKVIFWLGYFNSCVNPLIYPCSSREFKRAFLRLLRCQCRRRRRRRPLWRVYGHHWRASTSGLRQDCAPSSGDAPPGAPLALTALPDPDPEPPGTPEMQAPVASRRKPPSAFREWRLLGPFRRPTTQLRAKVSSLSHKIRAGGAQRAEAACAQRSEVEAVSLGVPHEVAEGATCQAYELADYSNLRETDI

[9] = molecular target: D(3) dopamine receptor (Homo sapiens, UniProt P35462); assay: Selectivity interaction (GPCR panel (PDSP screen)) EUB0000746a DRD3
[10] = molecular target: Calcium/calmodulin-dependent protein kinase type 1B (Homo sapiens, UniProt Q6P2M8); assay: Selectivity interaction (KinomeScan (DiscoverX)) EUB0000746a PNCK; details: at 1 µM
[11] = molecular target: T6, Mitogen-activated protein kinase 12 (Homo sapiens) (UniProt P53778); assay: Selectivity interaction (KinomeScan (DiscoverX)) EUB0000746a MAPK12; details: at 1 µM
T6 sequence (whole entry): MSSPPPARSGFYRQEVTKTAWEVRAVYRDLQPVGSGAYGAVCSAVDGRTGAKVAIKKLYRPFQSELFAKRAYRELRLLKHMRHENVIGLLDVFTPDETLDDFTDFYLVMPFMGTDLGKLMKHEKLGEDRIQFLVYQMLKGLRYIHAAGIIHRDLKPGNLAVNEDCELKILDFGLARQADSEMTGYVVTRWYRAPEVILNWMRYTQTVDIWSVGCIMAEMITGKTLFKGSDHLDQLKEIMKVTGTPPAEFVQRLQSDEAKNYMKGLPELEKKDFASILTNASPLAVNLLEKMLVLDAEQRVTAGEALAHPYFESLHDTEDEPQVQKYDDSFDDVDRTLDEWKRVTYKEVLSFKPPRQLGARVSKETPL

[12] = molecular target: Phosphatidylinositol 4,5-bisphosphate 3-kinase catalytic subunit alpha isoform (Homo sapiens, UniProt P42336); assay: Selectivity interaction (KinomeScan (DiscoverX)) EUB0000746a PIK3CA; details: at 1 µM
[13] = molecular target: Serine/threonine-protein kinase PRP4 homolog (Homo sapiens) (UniProt Q13523); assay: Selectivity interaction (KinomeScan (DiscoverX)) EUB0000264b PRPF4B; details: at 10 µM
[14] = molecular target: T4, Gamma-aminobutyric acid receptor subunit alpha-1; assay: Selectivity interaction (GPCR panel (PDSP screen)) EUB0000264b GABRA1
[15] = molecular target: T7, Myosin-IIIb (Homo sapiens) (UniProt Q8WXR4); assay: Selectivity interaction (KinomeScan (DiscoverX)) EUB0000264b MYO3B; details: at 10 µM
T7 sequence (whole entry): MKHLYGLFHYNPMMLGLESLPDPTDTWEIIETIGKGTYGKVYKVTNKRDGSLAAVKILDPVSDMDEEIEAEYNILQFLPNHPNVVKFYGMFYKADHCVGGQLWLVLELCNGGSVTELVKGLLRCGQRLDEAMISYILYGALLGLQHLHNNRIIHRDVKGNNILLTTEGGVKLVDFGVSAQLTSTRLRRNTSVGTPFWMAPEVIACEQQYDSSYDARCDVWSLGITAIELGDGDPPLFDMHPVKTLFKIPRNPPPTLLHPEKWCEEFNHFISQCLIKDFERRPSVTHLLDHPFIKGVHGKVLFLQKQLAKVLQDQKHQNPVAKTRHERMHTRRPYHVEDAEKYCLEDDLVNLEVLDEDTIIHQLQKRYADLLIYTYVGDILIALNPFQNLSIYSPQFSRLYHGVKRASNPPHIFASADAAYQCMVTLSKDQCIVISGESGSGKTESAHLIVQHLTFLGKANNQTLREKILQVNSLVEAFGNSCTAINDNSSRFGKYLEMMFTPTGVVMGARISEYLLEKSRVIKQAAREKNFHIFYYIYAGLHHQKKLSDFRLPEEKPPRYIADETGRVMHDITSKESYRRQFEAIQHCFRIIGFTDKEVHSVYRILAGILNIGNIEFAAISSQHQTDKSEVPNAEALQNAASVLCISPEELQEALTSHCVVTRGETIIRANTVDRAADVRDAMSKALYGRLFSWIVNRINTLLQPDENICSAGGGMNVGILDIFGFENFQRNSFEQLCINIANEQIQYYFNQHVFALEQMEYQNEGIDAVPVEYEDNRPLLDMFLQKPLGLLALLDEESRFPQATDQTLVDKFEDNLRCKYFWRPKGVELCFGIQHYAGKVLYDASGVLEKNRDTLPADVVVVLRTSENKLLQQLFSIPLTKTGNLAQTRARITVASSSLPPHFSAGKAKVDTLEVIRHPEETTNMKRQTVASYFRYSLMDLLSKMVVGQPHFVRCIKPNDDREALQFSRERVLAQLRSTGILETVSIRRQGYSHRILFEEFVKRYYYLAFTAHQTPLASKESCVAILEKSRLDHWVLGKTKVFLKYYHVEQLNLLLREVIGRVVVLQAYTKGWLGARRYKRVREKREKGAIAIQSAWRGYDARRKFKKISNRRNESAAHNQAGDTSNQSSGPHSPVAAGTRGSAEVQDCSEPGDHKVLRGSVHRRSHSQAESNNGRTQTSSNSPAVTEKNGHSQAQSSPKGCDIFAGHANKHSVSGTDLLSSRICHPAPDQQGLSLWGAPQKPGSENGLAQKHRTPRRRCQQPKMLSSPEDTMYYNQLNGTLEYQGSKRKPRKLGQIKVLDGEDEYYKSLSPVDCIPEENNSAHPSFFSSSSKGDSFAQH

Chain of D(3) dopamine receptor (P35462 whole entry): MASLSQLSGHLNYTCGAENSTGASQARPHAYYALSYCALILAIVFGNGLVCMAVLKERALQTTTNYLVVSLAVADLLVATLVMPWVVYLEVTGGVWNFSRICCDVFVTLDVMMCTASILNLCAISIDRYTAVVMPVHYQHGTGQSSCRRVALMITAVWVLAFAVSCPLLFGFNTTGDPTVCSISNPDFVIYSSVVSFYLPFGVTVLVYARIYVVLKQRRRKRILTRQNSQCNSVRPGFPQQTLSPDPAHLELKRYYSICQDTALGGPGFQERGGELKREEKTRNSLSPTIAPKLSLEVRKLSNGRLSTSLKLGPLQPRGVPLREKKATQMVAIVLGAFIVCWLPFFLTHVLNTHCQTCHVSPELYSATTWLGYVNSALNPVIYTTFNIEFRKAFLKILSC
Chain of Phosphatidylinositol 4,5-bisphosphate 3-kinase catalytic subunit alpha isoform (P42336 whole entry, canonical isoform): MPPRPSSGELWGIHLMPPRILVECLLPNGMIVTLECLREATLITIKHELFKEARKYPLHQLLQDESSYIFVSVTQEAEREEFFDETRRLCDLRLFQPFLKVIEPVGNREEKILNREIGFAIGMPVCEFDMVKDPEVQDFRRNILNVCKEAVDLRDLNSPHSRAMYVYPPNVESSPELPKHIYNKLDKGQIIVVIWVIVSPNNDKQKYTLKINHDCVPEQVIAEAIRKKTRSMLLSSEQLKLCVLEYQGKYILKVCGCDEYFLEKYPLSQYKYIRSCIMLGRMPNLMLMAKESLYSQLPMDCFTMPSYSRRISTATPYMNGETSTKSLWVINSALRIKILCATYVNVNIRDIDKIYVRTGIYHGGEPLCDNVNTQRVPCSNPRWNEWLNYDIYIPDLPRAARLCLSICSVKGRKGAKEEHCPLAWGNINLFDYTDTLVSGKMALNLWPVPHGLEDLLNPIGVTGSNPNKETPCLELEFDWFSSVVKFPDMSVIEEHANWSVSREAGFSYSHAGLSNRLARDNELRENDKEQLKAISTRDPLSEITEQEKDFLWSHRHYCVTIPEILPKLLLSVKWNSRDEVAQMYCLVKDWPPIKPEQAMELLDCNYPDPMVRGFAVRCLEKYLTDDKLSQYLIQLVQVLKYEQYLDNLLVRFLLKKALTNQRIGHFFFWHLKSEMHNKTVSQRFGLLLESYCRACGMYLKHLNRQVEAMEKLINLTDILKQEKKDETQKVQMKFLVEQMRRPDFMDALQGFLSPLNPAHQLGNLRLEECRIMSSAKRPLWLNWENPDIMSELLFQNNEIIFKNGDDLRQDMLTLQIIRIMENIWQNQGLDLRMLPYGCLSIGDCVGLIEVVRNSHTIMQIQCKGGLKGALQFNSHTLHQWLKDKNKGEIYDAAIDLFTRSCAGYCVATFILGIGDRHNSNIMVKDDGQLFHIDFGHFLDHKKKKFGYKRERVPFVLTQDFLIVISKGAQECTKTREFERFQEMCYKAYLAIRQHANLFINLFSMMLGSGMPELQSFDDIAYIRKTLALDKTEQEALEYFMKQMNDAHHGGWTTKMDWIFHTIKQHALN
Chain of Serine/threonine-protein kinase PRP4 homolog (Homo sapiens) (Q13523 whole entry): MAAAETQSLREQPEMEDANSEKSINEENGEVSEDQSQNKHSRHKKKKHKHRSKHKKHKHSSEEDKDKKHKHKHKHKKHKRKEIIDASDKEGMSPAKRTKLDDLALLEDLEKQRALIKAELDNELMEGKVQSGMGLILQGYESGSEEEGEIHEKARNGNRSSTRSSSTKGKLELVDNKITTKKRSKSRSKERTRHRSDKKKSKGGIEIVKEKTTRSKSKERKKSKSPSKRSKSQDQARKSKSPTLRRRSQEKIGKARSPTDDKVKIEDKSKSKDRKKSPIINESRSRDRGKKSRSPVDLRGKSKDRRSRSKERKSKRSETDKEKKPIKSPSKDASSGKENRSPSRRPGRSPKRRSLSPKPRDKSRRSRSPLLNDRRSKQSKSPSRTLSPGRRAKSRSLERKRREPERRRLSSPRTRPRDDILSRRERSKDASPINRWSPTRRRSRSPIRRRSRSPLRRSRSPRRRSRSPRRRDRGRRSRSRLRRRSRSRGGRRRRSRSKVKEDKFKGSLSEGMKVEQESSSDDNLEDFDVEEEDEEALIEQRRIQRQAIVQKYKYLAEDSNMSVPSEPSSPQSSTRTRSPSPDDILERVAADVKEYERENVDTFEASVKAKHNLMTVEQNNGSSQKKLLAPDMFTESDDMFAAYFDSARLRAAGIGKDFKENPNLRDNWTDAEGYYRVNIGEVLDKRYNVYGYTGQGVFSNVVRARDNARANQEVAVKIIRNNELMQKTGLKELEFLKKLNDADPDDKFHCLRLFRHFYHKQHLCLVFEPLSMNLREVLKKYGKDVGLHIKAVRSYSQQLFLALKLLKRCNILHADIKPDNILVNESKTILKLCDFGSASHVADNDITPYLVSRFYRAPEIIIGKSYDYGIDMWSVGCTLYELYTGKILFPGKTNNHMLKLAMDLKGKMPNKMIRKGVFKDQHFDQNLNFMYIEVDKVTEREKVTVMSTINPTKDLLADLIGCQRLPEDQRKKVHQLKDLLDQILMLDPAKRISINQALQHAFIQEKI
Chain of Calcium/calmodulin-dependent protein kinase type 1B (Q6P2M8 whole entry): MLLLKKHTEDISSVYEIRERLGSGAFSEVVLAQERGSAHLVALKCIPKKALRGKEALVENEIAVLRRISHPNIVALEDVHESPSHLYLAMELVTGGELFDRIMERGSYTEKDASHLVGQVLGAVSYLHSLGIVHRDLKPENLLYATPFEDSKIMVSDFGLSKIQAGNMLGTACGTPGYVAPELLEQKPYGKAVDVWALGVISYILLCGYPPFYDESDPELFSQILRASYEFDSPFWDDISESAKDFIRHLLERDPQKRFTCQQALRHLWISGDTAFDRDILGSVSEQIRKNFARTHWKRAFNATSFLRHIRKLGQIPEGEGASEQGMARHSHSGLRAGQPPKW
Chain of Translocator protein (Homo sapiens) (P30536 whole entry): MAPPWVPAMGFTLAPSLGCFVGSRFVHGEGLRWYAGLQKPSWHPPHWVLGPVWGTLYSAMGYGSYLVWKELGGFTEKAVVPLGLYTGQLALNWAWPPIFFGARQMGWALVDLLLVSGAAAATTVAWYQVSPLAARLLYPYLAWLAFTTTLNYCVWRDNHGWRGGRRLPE

% of inhibition [1]: 63.9%
% of inhibition [2]: 63.9%
% of inhibition [3]: 63.5%
% of inhibition [4]: 63.5%
% of control [5]: 51%
Ki [6]: 19.6 nM
% of inhibition [7]: 95.5%
Compound: COc1ccc2c(c1)O[C@@H](c1ccc(OC)c(OC)c1)C[C@H]2NC(=O)C1(c2ccc3c(c2)OC(F)(F)O3)CC1 [A-1596586]

Ki [8]: > 10000 nM
Ki [9]: > 10000 nM
% of control [10]: 0%
% of control [11]: 50%
% of control [12]: 50%
Compound: O=C(NS(=O)(=O)c1ccc(NCC2CCOCC2)c([N+](=O)[O-])c1)c1ccc(N2CCN(Cc3ccc(C(F)(F)F)cc3-c3ccc(Cl)cc3)CC2)cc1Oc1cnc2[nH]ccc2c1 [A-1210227]

% of control [13]: 56%
Ki [14]: 218 nM
% of control [15]: 39%
Compound: COc1ccc2c(c1)O[C@H](c1ccc(OC)c(OC)c1)C[C@@H]2NC(=O)C1(c2ccc3c(c2)OC(F)(F)O3)CC1 [A-1596584]
